Measured values reported in US7842710B2, “Carboxamides” (Bayer Cropscience AG, priority 2004, dated 2010).

What was measured:
Puccinia recondita = experiment: Puccinia test (wheat)/protective; type: in vivo; conditions: 240 h, protective, application rate 500 g/ha, evaluation ten days after inoculation, 0% = control, 100% = no infestation, read-out: Degree of effectiveness in %
Procedure: [table] To produce an appropriate active ingredient preparation, one part by weight of the active substance is mixed with the specified quantities of solvent and emulsifying agent, and the concentrate is diluted with water to the desired concentration. Young plants are sprayed with the active ingredient preparation at the specified application rate to test the effectiveness of protection. After the sprayed coating has dried, the plants are sprayed with a conidia suspension of Puccinia recondita. The plants are kept in an incubator at 20° C. and 100% relatively humidity for 48 hours. Then the plants are placed in a greenhouse at a temperature of about 20° C. and a relatively humidity of 80%, in order to promote the development of rust spots. The evaluation is performed ten days after the inoculation. A degree of effectiveness rating of 0% corresponds to the control, with 100% indicating no infestation observed.

[1] = logP determination by HPLC on a reverse phase column (C18), EEC Directive 79/831 Annex V.A8; type: physicochemical; conditions: HPLC C18, 43° C.; for logP (pH 2.3): Table 1; for chromatographic logP: reverse phase HPLC column (C18), pH 2.3
Procedure: The specified logP values are determined by HPLC on a reverse phase column (C18) in accordance with EEC Directive 79/831 Annex V.A8. Temperature: 43° C. Eluents for the measurement in the acid range (pH 2.3): 0.1% aqueous phosphoric acid, acetonitrile; linearer gradient of 10% acetonitrile to 90% acetonitrile. Calibration is performed with unbranched alkyl-2-ones (with 3 to 16 carbon atoms) with known logP values (determination of the logP values based on retention times by linear interpolation between two sequential alkyl ketones).

Row | SMILES | logP (pH 2.3) [1] | also measured
1 | CCC(C)SC(C)c1ccccc1NC(=O)c1c(C)nn(C)c1F (centres unmarked) [drawing 497] | – | pest or weed control at 500 g/ha (Puccinia recondita): 100%
2 | CCCC(C)SC(C)c1ccccc1NC(=O)c1sc(C)nc1C(F)F (centres unmarked) [drawing 506] | – | pest or weed control at 500 g/ha (Puccinia recondita): 100%
3 | CC(C)SC(C)c1ccccc1NC(=O)c1cn(C)nc1C(F)(F)F (centres unmarked) [drawing 494] | – | pest or weed control at 500 g/ha (Puccinia recondita): 100%
4 | CC(C)SC(C)c1ccccc1NC(=O)c1c(C(F)(F)F)nn(C)c1F (centres unmarked) | – | pest or weed control at 500 g/ha (Puccinia recondita): 96%
5 | Cc1nn(C)c(F)c1C(=O)Nc1ccccc1C(C)OC(C)C (centres unmarked) | – | pest or weed control at 500 g/ha (Puccinia recondita): 100%
6 | CCCC(C)SC(C)c1ccccc1NC(=O)c1sc(C)nc1C(F)(F)F (centres unmarked) [drawing 496] | – | pest or weed control at 500 g/ha (Puccinia recondita): 100%
7 | CCC(C)SC(C)c1ccccc1NC(=O)c1cn(C)nc1C(F)(F)F (centres unmarked) [drawing 498] | – | pest or weed control at 500 g/ha (Puccinia recondita): 100%
8 | CCC(C)SC(C)c1ccccc1NC(=O)c1cn(C)nc1C(F)F (centres unmarked) [drawing 507] | – | pest or weed control at 500 g/ha (Puccinia recondita): 100%
9 | CCC(C)SC(C)c1ccccc1NC(=O)c1sccc1C (centres unmarked) | – | pest or weed control at 500 g/ha (Puccinia recondita): 100%
10 | Cc1nn(C)c(F)c1C(=O)Nc1ccccc1C(C)SC(C)C (centres unmarked) [drawing 502] | – | pest or weed control at 500 g/ha (Puccinia recondita): 100%
11 | Cc1nn(C)c(Cl)c1C(=O)Nc1ccccc1C(C)SC(C)C (centres unmarked) | – | pest or weed control at 500 g/ha (Puccinia recondita): 100%
12 | CC(C)OC(C)c1ccccc1NC(=O)c1cn(C)nc1C(F)F (centres unmarked) [drawing 499] | – | pest or weed control at 500 g/ha (Puccinia recondita): 100%
13 | Cc1nc(C(F)F)c(C(=O)Nc2ccccc2C(C)OC(C)C)s1 (centres unmarked) [compound 131] | 3.58 | –
14 | COC(C)c1ccccc1NC(=O)c1c(C)nn(C)c1F (racemic) [compound 31] | 2.17 | –
15 | CC(C)OC(C)c1ccccc1NC(=O)c1cn(C)nc1I (centres unmarked) [compound 129] | 2.75 | –
16 | CC(C)S(=O)(=O)C(C)c1ccccc1NC(=O)c1cn(C)nc1C(F)F (centres unmarked) [compound 16] | 1.86 | –
17 | CC(C)SCc1ccccc1NC(=O)c1ccccc1I [compound 39] | 3.68 | –
18 | CC(C)S(=O)(=O)C(C)c1ccccc1NC(=O)c1cccnc1Cl (centres unmarked) [compound 5] | 1.68 | –
19 | CC(C)OC(C)c1ccccc1NC(=O)c1cn(C)nc1C(F)F (centres unmarked) [compound 135] | 2.89 | –
20 | Cc1nc(C(F)(F)F)c(C(=O)Nc2ccccc2C(C)SC(C)C)s1 (centres unmarked) [compound 25] | 3.73 | –
21 | CC(C)OC(C)c1ccccc1NC(=O)c1cn(C)nc1C(F)(F)F (centres unmarked) [compound 127] | 3.14 | –
22 | CC(C)C(=O)OCc1ccccc1NC(=O)c1ccccc1C(F)(F)F [compound 53] | 3.24 | –
23 | Cc1occc1C(=O)Nc1ccccc1C(C)SC(C)C (centres unmarked) [compound 24] | 3.71 | –
24 | CC(C)S(=O)(=O)C(C)c1ccccc1NC(=O)c1ccccc1C(F)(F)F (centres unmarked) [Compound No. 6] | 2.53 | –

Row | SMILES | logP (pH 2.3) [1] | also measured
25 | CC(C)C(=O)OCc1ccccc1NC(=O)c1cccnc1Cl [compound 57] | 2.38 | –
26 | COCc1ccccc1NC(=O)C1=C(C)OCC1 [compound 1] | 2.18 | –
27 | CCCC(C)SC(C)c1ccccc1NC(=O)c1ccoc1C (centres unmarked) [compound 77] | 4.61 | –
28 | CCC(C)SC(C)c1ccccc1NC(=O)c1cn(C)nc1C (centres unmarked) [compound 84] | 2.90 | –
29 | Cn1cc(C(=O)Nc2ccccc2CCO[Si](C)(C)C(C)(C)C)c(C(F)(F)F)n1 [compound 65] | 4.59 | –
30 | CC(C)SC(C)c1ccccc1NC(=O)c1ccccc1Br (racemic) [compound 26] | 3.79 | –
31 | CCC(C)SC(C)c1ccccc1NC(=O)c1ccccc1C(F)(F)F (centres unmarked) [compound 75] | 4.31 | –
32 | CC1=C(C(=O)Nc2ccccc2C(C)S(=O)(=O)C(C)C)SCCO1 (centres unmarked) [compound 2] | 2.07 | –
33 | CC(C)SC(C)c1ccccc1N (centres unmarked) [III-1, 2-[1-(isopropylthio)ethyl]aniline] | – | chromatographic logP [1]: 2.45
34 | Cc1nn(C)c(F)c1C(=O)Nc1ccccc1COC(=O)C(Cl)Cl [compound 52] | 2.36 | –
35 | Cc1nn(C)c(F)c1C(=O)Nc1ccccc1CCO [compound 63] | 1.21 | –
36 | CC(C)NC(C)c1ccccc1NC(=O)c1cn(C)nc1C(F)(F)F (racemic) [compound 41] | 1.06 | –
37 | Cc1sccc1C(=O)Nc1ccccc1C(C)S(=O)(=O)C(C)C (centres unmarked) [Compound No. 4] | 2.38 | –
38 | Cc1nc(C(F)F)c(C(=O)Nc2ccccc2C(C)SC(C)C)s1 (racemic) [compound 29] | 3.55 | –
39 | CC(C)SC(C)c1ccccc1NC(=O)c1cn(C)nc1C(F)(F)F (centres unmarked) [compound 18] | 3.27 | –
40 | CCCC(C)SC(C)c1ccccc1NC(=O)c1cn(C)nc1C (centres unmarked) [compound 82] | 3.27 | –
41 | Cc1nn(C)cc1C(=O)Nc1ccccc1C(C)SC1CCCC1 (centres unmarked) [compound 95] | 3.04 | –
42 | CC(C)SC(C)c1ccccc1NC(=O)c1cccnc1Cl (centres unmarked) [compound 22] | 2.95 | –
43 | CC(C)SCc1ccccc1[N+](=O)[O-] [VII-2, 1-[1-(isopropylthio)methyl]-2-nitrobenzene] | – | chromatographic logP [1]: 3.28
44 | CCCC(C)SC(C)c1ccccc1NC(=O)C1=C(C)OCCS1 (centres unmarked) [compound 87] | 4.53 | –
45 | Cc1occc1C(=O)Nc1ccccc1C(C)S(=O)(=O)C(C)C (centres unmarked) [compound 8] | 2.21 | –
46 | CCCC(C)SC(C)c1ccccc1NC(=O)c1c(C(F)(F)F)nn(C)c1F (racemic) [compound 111] | 4.38 | –
47 | CCC(C)SC(C)c1ccccc1NC(=O)c1ccccc1Br (centres unmarked) [compound 83] | 4.21 | –
48 | CC(C)SC(C)c1ccccc1NC(=O)c1ccccc1Cl (centres unmarked) [compound 21] | 3.74 | –

Row | SMILES | logP (pH 2.3) [1] | also measured
49 | CC(C)NC(C)c1ccccc1N (centres unmarked) [III-4, 2-[1-(isopropylamino)ethyl]aniline] | – | chromatographic logP [1]: 0.05
50 | CCCC(C)SC(C)c1ccccc1NC(=O)c1sc(C)nc1C(F)F (centres unmarked) [compound 79] | 4.36 | –
51 | CCC(C)SC(C)c1ccccc1NC(=O)c1cn(C)nc1C(F)F (centres unmarked) [compound 80] | 3.38 | –
52 | Cc1nc(C(F)F)c(C(=O)Nc2ccccc2C(C)S(=O)(=O)C(C)C)s1 (centres unmarked) [compound 13] | 2.16 | –
53 | CC(C)S(=O)(=O)C(C)c1ccccc1NC(=O)c1cn(C)nc1C(F)(F)F (centres unmarked) [compound 15] | 2.09 | –
54 | CC(C)OC(C)c1ccccc1NC(=O)c1ccccc1C(F)(F)F (centres unmarked) [compound 134] | 3.81 | –
55 | CC(C)SC(C)c1ccccc1NC(=O)c1cn(C)nc1C(F)F (racemic) [compound 28] | 3.01 | –
56 | CC(C)S(=O)(=O)C(C)c1ccccc1N (centres unmarked) [III-2, 2-[1-(isopropylsulfonyl)ethyl]aniline] | – | chromatographic logP [1]: 1.28
57 | CCCC(C)SC(C)c1ccccc1NC(=O)c1ccccc1Br (centres unmarked) [compound 81] | 4.63 | –
58 | CCC(C)SC(C)c1ccccc1NC(=O)c1c(C)nn(C)c1F (mixture of isomers) [compound 46] | 3.38 | –
59 | CC(SC1CCCC1)c1ccccc1NC(=O)c1ccccc1Cl (centres unmarked) [compound 92] | 4.29 | –
60 | CC(C)S(=O)(=O)C(C)c1ccccc1NC(=O)c1ccccc1I (centres unmarked) [compound 7] | 2.43 | –
61 | CC(C)SC(C)c1ccccc1[N+](=O)[O-] (centres unmarked) [VII-1, 1-[1-(isopropylthio)ethyl]-2-nitrobenzene] | – | chromatographic logP [1]: 3.89
62 | CC(C)OC(C)c1ccccc1NC(=O)c1ccccc1I (centres unmarked) [compound 130] | 3.83 | –
63 | CC(C)C(=O)OCCc1ccccc1NC(=O)c1cn(C)nc1C(F)(F)F [compound 64] | 2.79 | –
64 | Cc1nn(C)c(F)c1C(=O)Nc1ccccc1CCO[Si](C)(C)C(C)(C)C [compound 69] | 4.49 | –
65 | Cc1nc(C(F)F)c(C(=O)Nc2ccccc2CSC(C)C)s1 [compound 35] | 3.27 | –
66 | CC(C)SC(C)c1ccccc1NC(=O)c1ccccc1C(F)(F)F (centres unmarked) [compound 23] | 3.90 | –
67 | CCC(C)SC(C)c1ccccc1NC(=O)c1ccccc1Cl (centres unmarked) [compound 73] | 4.17 | –
68 | Cc1nn(C)c(F)c1C(=O)Nc1ccccc1CCOC(=O)C(C)C [compound 67] | 2.40 | –
69 | CCCC(C)SC(C)c1ccccc1NC(=O)C1=C(C(F)(F)F)OCCS1 (racemic) [compound 110] | 4.49 | –
70 | CC(C)NC(C)c1ccccc1[N+](=O)[O-] (centres unmarked) [VII-5, N-[1-(2-nitrophenyl)ethyl]propane-2-amine] | – | chromatographic logP [1]: 0.55
71 | CC(O)c1ccccc1[N+](=O)[O-] (centres unmarked) [XI-1, 1-(2-nitrophenyl)ethanol] | – | chromatographic logP [1]: 1.49
